How the values were obtained:
[1] = Liver microsome metabolic stability (LMS) assay, mouse; details: for T1/2 of LMS, M: mouse liver microsome 0.5 mg protein/mL, 1 μM, NADPH
[2] = In vivo pharmacokinetics assay in mice via IV and PO; parameters: species or system ICR mice; details: for Mean Concentration In brain / Mean Concentration In plasma / B/P ratio: PO (Group 4 design: 30 mg/kg); for B/P ratio: brain to plasma, one value for 2 h and 4 h
Procedure: Pharmacokinetics assay for test compounds was performed in mice via IV and PO.
Test compound solution was prepared on the day of administration.
Solvent: IV+PO: 5% DMSO+10% Soultol+85% H2O or saline
Species: ICR mice; SPF level.
Source: Beijing Vital River Laboratory Animal Technology Co., Ltd.
Animal selection: Males. No random grouping
Weighed before dosing, calculated dosage according to body weight. For Groups 1-3, the drug was administered intravenously or intragastrically. For Group 4, the drug administered intragastrically.
For Groups 1-3, at 0.083 h, 0.25 h, 0.5 h, 1 h, 2 h, 4 h, 6 h, 8 h, 24 h, after administration. For Group 4, at 2 h and 4 h after administration.
Blood was collected through the cheeks. For each sample, about 0.05 mL of blood was collected and was added heparin sodium or EDTA-2K as anticoagulant, and was placed on wet ice.
The blood samples were collected and placed on ice and was centrifuged within 1 hour (centrifugation: 6000 g, 3 minutes, 2-8° C.) to separate plasma. Plasma samples were stored in a −80° C. refrigerator prior to analysis.
The pharmacokinetic parameters were calculated using Phoenix WinNonlin8.2.0 based on the blood concentration data at different time points, and AUC0-t, AUC0-∞, MRT0-∞, Cmax, Tmax, and T1/2 and mean values and standard deviations thereof were provided.

in vitro = details: cynomolgus monkey, microsomes
[3] = tested on: HCT116 parental (wild type) cells; test: HCT116 cell proliferation assay (CTG), parental cells; type: cell-based, human; details: Cell Titer-Glo
Procedure: Control samples were analyzed in parallel.
On Day 0, 150 HCT116 parental or HCT116 homozygous MTAP knockout cells were seeded in 96-well plates in McCoy's 5A medium containing 10% fetal bovine serum and pen/strep. And the cells were incubated overnight at 37° C. and 5% CO2.
On Day 1, cells were treated with 9-point serial dilution of compound, using a top concentration of 50 μM, 1:5 serial dilution steps and, a DMSO-only control. And cells were incubated for 6 days.
On Day 7, cell viability was measured using a CTG assay Kit (Cell Titer-Glo; Promega, catalog no.: G7573) in accordance with the manufacturer's instructions. Assays plates were read on a EnVision™ Multilabel Reader using the Ultra-Sensitive luminescence model. The data were analyzed by GraphPad Prism 5.0 software, and the dose-effect curve was obtained by fitting the data using nonlinear S-curve regression, from which the IC50 value was calculated.

[4] = microsomes; for CLint (mic) C / T1/2 of LMS, C: cynomolgus monkey
[5] = tested on: cryopreserved hepatocytes; test: Hepatic metabolic stability (HMS) assay, human hepatocytes; details: for T1/2 (hepatocytes) H / CLint (liver) H: human hepatocytes; for T1/2 (hepatocytes) H: 1 μM test compound (3 μM positive control); for CLint (liver) H: scaled to liver; for CLint (hep) H: human, hepatocytes
Procedure: 1) 10 mM test compounds were provided.
(§1) 2) 30 mM positive control stock solutions: Dissolved accurate amount of positive control compounds in dimethyl sulfoxide (DMSO).
(§2) 3) 1000× Stock Solution: Diluted 10 mM test compounds and 30 mM positive control compounds to 1 mM and 3 mM with DMSO in 96-well plates.
(§3) 4) 100× Dosing Solution: Diluted 1 mM test compounds and 3 mM positive control compounds to 100 μM and 300 μM dosing solutions with ACN.
(§4) 5) Preparation of 0.5×10^6/mL cells suspension: cryopreserved cells were thawed, isolated and suspended in Incubation Medium, then diluted with pre-warmed Incubation Medium to 0.5×10^6 cells/mL.
(§5) 6) Add 198 μL of pre-warmed cell suspensions in 96-well plates.
(§6) 7) Preparation of Quenching Plate: Transfer 125 μL of stop solution in a set of pre-labeled 96-well plates.
(§7) 8) Spike 2 μL dosing solution to each well of 96-well plates in duplicate.
(§8) 9) For TO Samples, mix to achieve a homogenous suspension for about 1 min, then immediately transfer 25 μL of each sample into well containing 125 μL of ice-cold stop solution followed by mixing.
(§9) 10) Incubate all plates at 37° C. in a 95% humidified incubator at 5% CO2 to start the reactions with constant shaking.
(§10) 11) At 15, 30, 60 and 90 min, mix samples and then transfer 25 μL of each sample at each time point to well containing 125 μL of ice-cold stop solution followed by mixing.
(§11) 12) Medium Control (MC) sample plates (labeled as TO-MC and T90-MC) are prepared in the same way as cell incubation except that medium was used instead of cell suspension.
(§12) 13) At each corresponding time point, stop the reactions by removing the plates from incubator and mixing with 125 μL of ice-cold stop solution.
(§13) 14) Vortex the plates immediately on a plate shaker at 600 rpm for 10 minutes. Then, centrifuge all sample plates at 3220×g for 20 min at 4° C.
(§14) 15) After centrifugation, 80 μL/well of supernatant in the sample plates are transferred to another set of pre-labeled 96-well plates which containing 240 μL of ultra pure water according to the plate map.
(§15) 16) Analytical plates are sealed and store at 4° C. until LC-MS/MS analysis.
(§16) The remaining percents of test articles after incubation were calculated by the follow equations:
(§17) Use the following equation of first order kinetics to calculate T1/2 and CLint:

[6] = tested on: cryopreserved hepatocytes; test: Hepatic metabolic stability (HMS) assay, mouse hepatocytes; details: for T1/2 (hepatocytes) M / CLint (liver) M: mouse hepatocytes; for T1/2 (hepatocytes) M: 1 μM test compound (3 μM positive control); for CLint (liver) M: scaled to liver; for CLint (hep) M: mouse, hepatocytes
Procedure: 1) 10 mM test compounds were provided.
as §1, §2, §3, §4, §5, §6, §7, §8, §9, §10, §11, §12, §13, §14, §15, §16, §17

[7] = microsomes; for CLint (mic) H / T1/2 of LMS, H: human
[8] = tested on: human colon cancer cell line HCT116 (MTAP KO); test: In vivo efficacy assay, subcutaneous HCT116 MTAP KO xenograft; parameters: species or system Balb/C nude female mouse; details: 15 mg/kg PO/QD, 21 days, Balb/C nude mice
Procedure: The antitumor effect or MTAP/MTA selectivity of the compounds provided herein in the subcutaneously transplanted Balb/C nude female mouse model of human colon cancer cell line HCT116 (WT and MTAP KO) was tested.
Cell viability and cell count were determined. Cell count of the suspension was adjusted to 1×10^8 cells/mL and mixed with Matrigel in a 1:1 volume. Each mouse for this study were inoculated subcutaneously in the right front flank region with 5×10^6 tumor cells (0.1 mL) for tumor development.
The randomization started when the mean tumor size reaches approximately 100-150 mm^3. Mice inoculated with HCT116 WT cells were randomized on day 7. Mice inoculated with HCT116 MTAP KO cells were randomized on day 8. All animals were randomly allocated to 5 study groups, each group consisted of 8 animals. Randomization was performed based on randomized block design.
Tumor volume was measured twice per week in two dimensions using a caliper, and the volume was expressed in mm^3 using the formula: “V=(L×W×W)/2”, where V is tumor volume, L is tumor length (the longest tumor dimension) and W is tumor width (the longest tumor dimension perpendicular to L).

[9] = tested on: cryopreserved hepatocytes; test: Hepatic metabolic stability (HMS) assay, dog hepatocytes; details: for T1/2 (hepatocytes) D / CLint (liver) D: dog hepatocytes; for T1/2 (hepatocytes) D: 1 μM test compound (3 μM positive control); for CLint (liver) D: scaled to liver; for CLint (hep) D: dog, hepatocytes
Procedure: 1) 10 mM test compounds were provided.
as §1, §2, §3, §4, §5, §6, §7, §8, §9, §10, §11, §12, §13, §14, §15, §16, §17

[10] = tested on: cryopreserved hepatocytes; test: Hepatic metabolic stability (HMS) assay, rat hepatocytes; details: for T1/2 (hepatocytes) R / CLint (liver) R: rat hepatocytes; for T1/2 (hepatocytes) R: 1 μM test compound (3 μM positive control); for CLint (liver) R: scaled to liver; for CLint (hep) R: rat, hepatocytes
Procedure: 1) 10 mM test compounds were provided.
as §1, §2, §3, §4, §5, §6, §7, §8, §9, §10, §11, §12, §13, §14, §15, §16, §17

Structure (SMILES)	T1/2 of LMS, C [4] [h]	T1/2 of LMS, M [1] [h]	Cl ([2]; IV 1.0 mg/kg) [mL/min/kg]	AUC0-t ([2]; PO 10 mg/kg) [ng·h/mL]	T1/2 ([2]; PO 10 mg/kg) [h]	C8 h ([2]; PO 10 mg/kg, plasma) [ng/mL]	C24 h ([2]; PO 10 mg/kg, plasma) [ng/mL]	Cmax ([2]; PO 10 mg/kg, plasma) [ng/mL]	AUC0-t ([2]; PO 30 mg/kg) [ng·h/mL]	T1/2 ([2]; PO 30 mg/kg) [h]	C8 h ([2]; PO 30 mg/kg, plasma) [ng/mL]	C24 h ([2]; PO 30 mg/kg, plasma) [ng/mL]	Cmax ([2]; PO 30 mg/kg, plasma) [ng/mL]	T1/2 (hepatocytes) H [5] [h]	CLint (liver) H [5] [mL/min/kg]	CLint (hep) H [5] [μL/min/10^6]	T1/2 (hepatocytes) M [6] [h]	CLint (liver) M [6] [mL/min/kg]	CLint (hep) M [6] [μL/min/10^6]	Tumor growth inhibition (TGI) HCT 116 MTAP KO [8] [%]	further results
CN(C(=O)c1ccc2nc(N)c3cncn3c2c1)[C@@H]1COc2cc(C(F)(F)F)ccc21 [Compound 12]	–	–	–	–	–	–	–	–	–	–	–	–	–	–	–	–	–	–	–	–	half-life at 1 μM ([1]; mouse, liver microsomes): 1.14 h; clearance ([2]; male, ICR, mouse, plasma, IV 1.0 mg/kg): 3.48 mL/min/kg; half-life at 1 μM (in vitro): 0.935 h; IC50 ([3]; Homo sapiens, HCT-116, 6 days treatment): 5.16 µM
CN(C(=O)c1cc2c(cn1)nc(N)c1cncn12)C1COc2cc(C(F)(F)F)ccc21 (stereo not shown) [Compound 19]	>2.42	2	4.38	32782	4.88	1833	178	2620	94249	5.26	4817	540	8117	>3.613	<17.8	<6.4	2.35	116.7	9.8	11	CLint (mic) C [4]: <9.6 µL/min/mg; CLint (liver) C [4]: <13.0 mL/min/kg; CLint (mic) H [7]: <9.6 µL/min/mg; T1/2 of LMS, H [7]: >2.42 h; CLint (liver) H [7]: <8.6 mL/min/kg; IC50 ([3]; 6 days treatment): 3.06 µM; T1/2 (hepatocytes) D [9]: >3.613 h; CLint (liver) D [9]: <44 mL/min/kg; CLint (hep) D [9]: <6.4 μL/min/10^6; T1/2 (hepatocytes) R [10]: 2.443 h; CLint (liver) R [10]: 44.3 mL/min/kg; CLint (hep) R [10]: 9.5 μL/min/10^6
CN(C(=O)c1ccc2nc(N)c3cncn3c2c1)C1COc2cc(C(F)(F)F)ccc21 (stereo not shown) [Compound 17]	1.07	–	3.10	50800	5.07	2287	257	4627	174589	4.87	8260	860	16233	–	–	–	–	–	–	−11	AUC0-t ([2]; IV 1.0 mg/kg): 5219 ng·h/mL; T1/2 ([2]; IV 1.0 mg/kg): 5.05 h; Cmax ([2]; IV 1.0 mg/kg, plasma): 965 ng/mL; Mean Concentration In brain ([2]; 2 h): 3308 ± 1056 ng/g; Mean Concentration In plasma ([2]; 2 h): 14843 ± 4945 ng/mL; Mean Concentration In brain ([2]; 4 h): 2668 ± 224 ng/g; Mean Concentration In plasma ([2]; 4 h): 13667 ± 1365 ng/mL; B/P ratio [2]: 21%; T1/2 of LMS, H [7]: >2.42 h; IC50 ([3]; 6 days treatment): 4.08 µM
CN(C(=O)c1cc2c(cn1)nc(N)c1cncn12)C1CC(F)(F)c2cc(C(F)(F)F)ccc21 (stereo not shown) [Compound 24]	–	>2.42	2.41	44942	4.41	2598	186	3355	–	–	–	–	–	>3.613	<17.8	<6.4	1.27	216.4	18.2	3	AUC0-t ([2]; PO 50 mg/kg): 130284 ng·h/mL; T1/2 ([2]; PO 50 mg/kg): 3.23 h; C8 h ([2]; PO 50 mg/kg, plasma): 4983 ng/mL; C24 h ([2]; PO 50 mg/kg, plasma): 178 ng/mL; Cmax ([2]; PO 50 mg/kg, plasma): 15733 ng/mL; Mean Concentration In brain ([2]; 2 h): 3132 ± 1647 ng/g; Mean Concentration In plasma ([2]; 2 h): 6327 ± 2604 ng/mL; Mean Concentration In brain ([2]; 4 h): 3084 ± 145 ng/g; Mean Concentration In plasma ([2]; 4 h): 5983 ± 361 ng/mL; B/P ratio [2]: 51%; IC50 ([3]; 6 days treatment): 3.93 µM; T1/2 (hepatocytes) D [9]: 3.577 h; CLint (liver) D [9]: 44.4 mL/min/kg; CLint (hep) D [9]: 6.5 μL/min/10^6; T1/2 (hepatocytes) R [10]: 1.797 h; CLint (liver) R [10]: 60.2 mL/min/kg; CLint (hep) R [10]: 12.9 μL/min/10^6
CN(C(=O)c1cc2c(cn1)nc(N)c1cncn12)C1COc2cc(C(F)(F)F)ccc21 (stereo not shown) [Compound 21]	>2.42	1.82	3.94	43397	6.67	2537	415	2820	124997	6.45	6880	1257	8710	>3.613	<17.8	<6.4	2.582	106.3	8.9	11	CLint (mic) C [4]: <9.6 µL/min/mg; CLint (liver) C [4]: <13.0 mL/min/kg; CLint (mic) H [7]: <9.6 µL/min/mg; T1/2 of LMS, H [7]: >2.42 h; CLint (liver) H [7]: <8.6 mL/min/kg; T1/2 (hepatocytes) D [9]: >3.613 h; CLint (liver) D [9]: <44 mL/min/kg; CLint (hep) D [9]: <6.4 μL/min/10^6; T1/2 (hepatocytes) R [10]: 2.983 h; CLint (liver) R [10]: 36.2 mL/min/kg; CLint (hep) R [10]: 7.7 μL/min/10^6

From US20240262835A1, “PRMT5 INHIBITING COMPOUNDS AND USES THEREOF” (ANTENGENE DISCOVERY LIMITED, priority 2023, published 2024)
